# In ChEMBL document CHEMBL5728679, “Imidazopyridinyl compounds and use thereof for treatment of neurodegenerative disorders” (2021):
# Target: Tyrosine-protein kinase ABL1 (Homo sapiens, UniProt P00519)
# Experiment: Kinase Assay: c-abl: ADP-Glo assay kit was purchased from Promega. Magnesium chloride (MgCl2), bovine serum albumin (BSA), ethylene glycol-bis(p-aminoethyl ether)-N,N,N′,N′-tetraacetic acid (EGTA), triton X-100, 1,4-dithiothreitol (DTT) and dimethyl sulfoxide (DMSO) were purchased from Sigma-Aldrich. HEPES buffer was purchased from Gibco. ABL1 kinase and Abltide were purchased from Signalchem.c-Abl kinase activity was measured by Promega's ADP-Glo™ Assay. In this assay, His-tagged recombinant human ABL1 (0.25 ng/μl) is incubated with 5 μL of compounds (0.5% DMSO), 5 μL of Abltide (0.01 μg/μl) and 5 μL of ATP (25 μM) in buffer (50 mM HEPES, 7.5; 10 mM MgCl2; 1 mM EGTA; 0.05% BSA; 0.01% Triton X-100; 2 mM DTT). The assay was started by incubating the reaction mixture in a 96-well plate at 30° C. for 30-min. After the incubation, 25 μL ADP-Glo reagent was added and the reaction was incubated at room temperature for 40-min to stop the reaction and degrade residual ATP. The ADP product was then converted to ATP by adding 50 μL per well of detection reagent. Luminescence was detected after 30-min room temperature incubation with the Molecular device I3X plate reader. The IC50 values were calculated from a series of percent inhibition values determined at a range of inhibitor concentration using software routines as implemented in the GraphPad Prism 7 software and Sigma Plot 13.0.
# Tyrosine-protein kinase ABL1, sequence (P00519 whole entry): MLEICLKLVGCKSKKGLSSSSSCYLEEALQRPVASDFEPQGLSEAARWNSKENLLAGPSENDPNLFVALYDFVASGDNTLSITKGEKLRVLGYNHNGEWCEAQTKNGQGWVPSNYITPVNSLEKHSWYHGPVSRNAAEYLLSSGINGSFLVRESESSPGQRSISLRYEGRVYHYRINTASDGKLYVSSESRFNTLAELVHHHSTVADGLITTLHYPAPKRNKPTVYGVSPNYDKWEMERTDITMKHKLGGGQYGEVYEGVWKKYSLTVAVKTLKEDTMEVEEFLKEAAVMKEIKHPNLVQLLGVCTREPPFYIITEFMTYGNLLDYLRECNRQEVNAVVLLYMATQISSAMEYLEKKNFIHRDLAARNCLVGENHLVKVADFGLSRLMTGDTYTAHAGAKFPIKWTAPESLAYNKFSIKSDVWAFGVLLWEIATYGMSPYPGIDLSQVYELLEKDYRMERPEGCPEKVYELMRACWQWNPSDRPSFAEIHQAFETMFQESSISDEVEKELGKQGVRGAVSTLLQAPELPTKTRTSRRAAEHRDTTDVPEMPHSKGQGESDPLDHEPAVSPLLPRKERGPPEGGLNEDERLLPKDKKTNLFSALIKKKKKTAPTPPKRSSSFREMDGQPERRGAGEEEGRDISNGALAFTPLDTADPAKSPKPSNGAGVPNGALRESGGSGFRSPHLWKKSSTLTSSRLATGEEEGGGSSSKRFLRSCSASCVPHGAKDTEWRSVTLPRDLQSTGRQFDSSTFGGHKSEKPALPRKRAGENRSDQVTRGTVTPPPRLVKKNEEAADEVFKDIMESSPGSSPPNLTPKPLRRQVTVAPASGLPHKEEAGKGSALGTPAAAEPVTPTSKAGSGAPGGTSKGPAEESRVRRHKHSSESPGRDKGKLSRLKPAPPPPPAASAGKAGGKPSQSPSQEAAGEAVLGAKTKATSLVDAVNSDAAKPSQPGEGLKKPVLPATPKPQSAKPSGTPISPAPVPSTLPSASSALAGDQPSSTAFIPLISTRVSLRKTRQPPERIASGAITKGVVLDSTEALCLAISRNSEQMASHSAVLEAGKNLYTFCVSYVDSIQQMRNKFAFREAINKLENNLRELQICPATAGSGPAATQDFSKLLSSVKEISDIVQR
row,IC50 [nM],SMILES
1,< 10,Cc1cccc(C)c1-c1ccc2nc(NC(=O)[C@@H]3C[C@@H]3F)cn2c1
2,< 10,COc1ccncc1-c1ccc2nc(NC(=O)[C@@H]3C[C@@H]3F)cn2c1
3,< 10,Cc1c(F)cccc1-c1ccc2nc(NC(=O)C3CC3(F)F)cn2c1 (centres undefined)
4,< 10,Cc1cc2scnc2cc1-c1ccc2nc(NC(=O)[C@@H]3C[C@@H]3F)cn2c1
